Results as given in US9572794B2, “Substituted indoles as selective protease activated receptor 4 (PAR-4) antagonists” (Vanderbilt University, priority 2014, dated 2017).

Molecular target: T1, PAR4 (Homo sapiens, UniProt Q96RI0)
T1 construct: 60 μL of washed platelets (Tyrodes buffer containing 0.1% BSA); endogenous in cells
T1 sequence (Q96RI0 18-385): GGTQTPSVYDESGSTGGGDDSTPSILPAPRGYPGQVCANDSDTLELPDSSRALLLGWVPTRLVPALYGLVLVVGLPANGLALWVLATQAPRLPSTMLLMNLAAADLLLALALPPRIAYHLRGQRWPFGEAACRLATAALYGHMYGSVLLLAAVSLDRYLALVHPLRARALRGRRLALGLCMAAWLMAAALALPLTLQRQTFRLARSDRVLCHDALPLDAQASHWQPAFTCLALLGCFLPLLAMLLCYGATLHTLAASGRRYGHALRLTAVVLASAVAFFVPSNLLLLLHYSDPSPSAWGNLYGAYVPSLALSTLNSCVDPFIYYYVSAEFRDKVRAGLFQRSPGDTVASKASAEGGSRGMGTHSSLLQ
Assay: PAC-1 Binding assay (antagonism of PAR4 mediated αIIBβ3 activation, flow cytometry)
Type: cell-based
Conditions: for % Max PAC-1: washed platelets, 100% response = DMSO treated control stimulated with 200 μM PAR4-AP, mean values; for IC50: washed platelets stimulated with PAR4-AP, PAC-1 binding, sigmoidal dose response, variable slope
Protocol: PAC-1 Binding assay: 60 μL of washed platelets (Tyrodes buffer containing 0.1% BSA) at a concentration of 0.15×10^8 platelets/mL were added to 5 mL round bottom polystyrene tubes (BD, Franklin Lakes, N.J.). FITC conjugated PAC-1 (BD Biosciences, San Jose, Calif.) antibody was diluted (to the manufacturers recommended concentration) in Tyrode's buffer containing 0.1% BSA. 40 μL of diluted antibody was added to the platelets and allowed to incubate for 5 minutes. Platelets were pre-treated with indicated concentrations of antagonist or DMSO control for 5 minutes followed by addition of PAR1-AP (GL Biochem, Shanghai, China) or PAR4-AP for 10 minutes. […] The final DMSO concentration was 0.5%. Platelets were stored up to 18 hours at 4° C. before flow cytometric analysis. Analysis was carried out on a BD FACS Canto II (Franklin Lakes, N.J.). Fluorescent intensity was determined for 100,000 events within the platelet gate. Data was collected and analyzed via FACS DiVa software. Flow cytometric data analysis was conducted by the following method. The DMSO-vehicle treated control was subtracted from each data point. 100% response for PAR4-AP was determined for each individual as the DMSO treated control stimulated with either 200 μM PAR4-AP, or 20 μM PAR1-AP. Data was plotted in GraphPad PRISM v.5.0. For compounds with a notable reduction in PAC-1 binding response, dose response curves and IC50 values were generated using the inhibitory sigmoidal dose response ‘variable slope’ parameter. PAR4 results are plotted as mean values.

Structure (SMILES) | % Max PAC-1 | IC50
CSc1ccc(-c2c(CO)n(Cc3ccccc3Cl)c3ccc(OC(F)(F)F)cc23)cn1 [Example B76] | 79.22% | –
COc1ccc(-c2c(CO)n(Cc3ccccc3Cl)c3cc(OC(C)C)ccc23)cn1 [Example B66] | 59.45% | –
COc1cc(Cn2c(CO)c(-c3ccc(OC)nc3)c3cc(OC(F)(F)F)ccc32)cc(OC)c1 [Example B10] | 110.6% | –
OCc1c(-c2cncnc2)c2cc(OC(F)(F)F)ccc2n1Cc1ccccc1Cl [Example B55] | 101.8% | –
CSc1ncc(-c2c(CO)n(Cc3ccc(F)cc3F)c3ccc(OC(F)(F)F)cc23)cn1 [Example B48] | 14.5% | 1.98 µM
COc1ccc(-c2c(CO)n(Cc3ccccn3)c3ccc(S(C)(=O)=O)cc23)cn1 [Example B27] | 100.1% | –
OCc1c(-c2cncnc2)c2cc(OC(F)(F)F)ccc2n1Cc1ccc(F)cc1F [Example B49] | 96.0% | –
COc1ccc(-c2c(CO)n(Cc3ccccn3)c3ccc(C#N)cc23)cn1 [Example B26] | 113.7% | –
CCOc1ccc2c(-c3ccc(OC)nc3)c(CO)n(Cc3ccccc3Cl)c2c1 [Example B61] | 19.78% | 3.84 µM
COc1ccc(-c2c(CO)n(Cc3cccc(Br)c3)c3ccc(OC(F)(F)F)cc23)cn1 [Example B7] | 27.2% | –
COc1ccc(-c2c(CO)n(Cc3ccc(C#N)cc3F)c3ccc(C#N)cc23)cn1 [Example B36] | 108.8% | –
COc1ccc2c(-c3ccc(OC)nc3)c(CO)n(Cc3ccccc3Cl)c2c1 [Example B59] | 4.31% | 1.35 µM
COc1ccc(-c2c(CO)n(Cc3cccc(C(F)(F)F)c3)c3ccc(OC(F)(F)F)cc23)cn1 [Example B3] | 59.7% | –
OCc1c(-c2ccc(F)nc2)c2cc(OC(F)(F)F)ccc2n1Cc1ccc(F)cc1F [Example B53] | 48.2% | –
COc1ccc(-c2c(COCc3csc(-c4ccccc4)n3)n(Cc3csc(-c4ccccc4)n3)c3ccc(OC(F)(F)F)cc23)cn1 [Example B70] | 61.82% | –
COc1ccc(-c2c(CO)n(Cc3ccccc3)c3ccc(OC(F)(F)F)cc23)cn1 [Example B4] | 53.4% | –
COc1cccc(Cn2c(CO)c(-c3ccc(OC)nc3)c3cc4c(cc32)OCO4)c1 [Example B45] | 129.1% | –
CSc1ncc(-c2c(CO)n(Cc3ccccc3Cl)c3cc(OC(F)(F)F)ccc23)cn1 [Example B71] | 5.57% | 0.162 µM
COc1ccc(-c2c(CO)n(Cc3ccc(F)cc3F)c3ccc(C#N)cc23)cn1 [Example B33] | 105.0% | –
COc1ncc(-c2c(CO)n(Cc3ccccc3Cl)c3ccc(OC(F)(F)F)cc23)cn1 [Example B54] | 2.01% | 2.9 µM
CCOc1ncc(-c2c(CO)n(Cc3ccccc3Cl)c3ccc(OC(F)(F)F)cc23)cn1 [Example B52] | 24.0% | –
COc1ccc(-c2c(CO)n(C)c3ccc(OC(F)(F)F)cc23)cn1 [Example B8] | 93.9% | –
COc1ccc(-c2c(CO)n(Cc3cccc(Br)c3)c3ccc(S(C)(=O)=O)cc23)cn1 [Example B21] | 74.3% | –
COc1ccc(-c2c(CO)n(Cc3ccccc3)c3cc(OC(C)C)ccc23)cn1 [Example B72] | 81.76% | –
COc1ccc(-c2c(CO)n(Cc3cccc(Br)c3)c3cc4c(cc23)OCO4)cn1 [Example B44] | 96.5% | –
COc1ncc(-c2c(CO)n(Cc3ccc(F)cc3F)c3ccc(OC(F)(F)F)cc23)cn1 [Example B56] | 53.7% | > 10 µM

Structure (SMILES) | % Max PAC-1 | IC50
COc1cccc(Cn2c(CO)c(-c3ccc(OC)nc3)c3cc(C(F)(F)F)ccc32)c1 [Example B13, (1-(3-methoxybenzyl)-3-(6-methoxypyridin-3-yl)-5-(trifluoromethyl)-1H-indol-2-yl)methanol] | 108.5% | –
OCc1c(-c2ccc(F)nc2)c2cc(OC(F)(F)F)ccc2n1Cc1ccccc1Cl [Example B57] | 21.05% | 1.29 µM
COc1ccc(-c2c(CO)n(Cc3csc(-c4ccccc4)n3)c3ccc(OC(F)(F)F)cc23)cn1 [Example B68] | 61.98% | –
COc1ccc(-c2c(CO)n(Cc3ccccn3)c3cc4c(cc23)OCO4)cn1 [Example B38] | 107.2% | –
COc1ccc(-c2c(CO)n(Cc3cccc(Cl)c3)c3cc4c(cc23)OCO4)cn1 [Example B39] | 100.1% | –
COc1ccc(-c2c(CO)n(Cc3ccc(C#N)cc3F)c3cc4c(cc23)OCO4)cn1 [Example B40] | 98.6% | –
COc1ccc(-c2c(CO)n(Cc3ccc(F)cc3F)c3ccc(OC(F)(F)F)cc23)cn1 [Example B2] | 19.7% | 0.823 µM
COc1ccc(-c2c(CO)n(Cc3cccc(F)c3)c3ccc(OC(F)(F)F)cc23)cn1 [Example B1] | 80.6% | –
COc1ccc(-c2c(CO)[nH]c3ccc(OC(F)(F)F)cc23)cn1 [Example B67] | 116.1% | –
CCOc1ncc(-c2c(CO)n(Cc3ccc(F)cc3F)c3ccc(OC(F)(F)F)cc23)cn1 [Example B51] | 48.5% | –
COc1ccc(-c2c(CO)n(Cc3ccccc3)c3cc(OC(F)(F)F)ccc23)cn1 [Example B62] | 34.32% | 3.71 µM
COc1nn2cc(-c3c(CO)n(Cc4csc(-c5ccccc5)n4)c4ccc(OC(F)(F)F)cc34)nc2s1 [Example B74] | 38.32% | –
COc1ccc(-c2c(CO)n(Cc3ccccc3F)c3ccc(OC(F)(F)F)cc23)cn1 [Example B6] | 89.0% | –
COc1ccc2c(-c3cnc(SC)nc3)c(CO)n(Cc3ccccc3Cl)c2c1 [Example B60] | 21.33% | 4.3 µM
CSc1ccc(-c2c(CO)n(Cc3ccccc3Cl)c3ccc(OC(F)(F)F)cc23)cc1 [Example B73] | 107.63% | –
OCc1c(-c2ccncc2)c2cc(OC(F)(F)F)ccc2n1Cc1ccc(F)cc1F [Example B58] | 102.2% | –
COc1nn2cc(-c3c(CO)n(Cc4ccccc4Cl)c4ccc(OC(F)(F)F)cc34)nc2s1 [Example B75, (1-(2-chlorobenzyl)-3-(2-methoxyimidazo[2,1-b][1,3,4]thiadiazol-6-yl)-5-(trifluoromethoxy)-1H-indol-2-yl)methanol] | 8.40% | 0.184 µM
CSc1ncc(-c2c(CO)n(Cc3ccccc3Cl)c3cc(OC(C)C)ccc23)cn1 [Example B64] | 18.53% | 1.38 µM
CCOc1ccc2c(-c3cnc(SC)nc3)c(CO)n(Cc3ccccc3Cl)c2c1 [Example B63] | 14.77% | 2.15 µM
COc1ccc(-c2c(CO)n(Cc3cc(F)cc(F)c3)c3ccc(OC(F)(F)F)cc23)cn1 [Example B5] | 36.5% | –
COc1ccc(-c2c(CO)n(Cc3ccccc3Cl)c3cc(OC(F)(F)F)ccc23)cn1 [Example B65] | 12.25% | 0.966 µM
COc1ccc(-c2c(CO)n(Cc3cccc(Cl)c3)c3ccc(OC(F)(F)F)cc23)cn1 [Example B12] | 27.8% | –
COc1ccc(-c2c(CO)n(Cc3cccc(Br)c3)c3ccc(C#N)cc23)cn1 [Example B31] | 109.1% | –
COc1cccc(Cn2c(CO)c(-c3ccc(OC)nc3)c3cc(OC(F)(F)F)ccc32)c1 [Example B11] | 40.9% | –
COc1ccc(-c2c(CO)n(CC3CSC(c4ccccc4)=N3)c3ccc(OC(F)(F)F)cc23)cn1 (stereo not drawn) [Example B69] | 89.19% | –
OCc1c(-c2ccncc2)c2cc(OC(F)(F)F)ccc2n1Cc1ccccc1Cl [Example B47] | 101.7% | –
